Test system: Notch signalling
Assay: Xenopus developmental assay for Notch activity (tail bud formation)
Format: in vivo, Xenopus laevis
Conditions: Xenopus embryos cultured with compound from stage 15 to stage 40
Method: The following assay was used to determine the effect of compounds on Notch signalling.
Xenopus embryos were cultured in 1/10 NAM [Beck & Slack, Development, 126, 1611-1620, 1999] supplemented with protease inhibitors ([…] stock in DMSO) from stage 15 [P. D. Nieuwkoop and J. Faber, Normal table of Xenopus laevis, Daudin 1967, Reprinted Garland 1994] (24 hours), to stage 40 (3 days). Control siblings were incubated in 1/10 NAM containing 0.05% DMSO. At 3 days they were fixed in batches of 20 and measured using a graduated eyepiece on a Wild dissecting microscope set to 25×. Each tadpole was measured from head to proctodaeum (head and trunk) and from proctodaeum to tail tip (tail). Tail buds were extirpated at stage 30 and cultured for 24 hours as described previously [Tucker & Slack, Development, 121, 249-262, 1995]. Somites were detected by staining with monoclonal antibody 12/101 [Kintner & Brockes, Nature, 308, 67-69, 1984], as described elsewhere [Tucker & Slack, 1995]. In situ hybridisation for Xhox3 has been previously described [Beck & Slack, Mech. Dev., 72, 41-52, 1998].

CC(NC(=O)Cc1cc(F)cc(F)c1)C(=O)NC(C(=O)NCC1CN(c2ccccc2)CCO1)c1ccccc1 (mixture of isomers) [Example 1, 2-[2-(3,5-Difluorophenyl)acetylamino]-N-{phenyl[(4-phenylmorpholin-2-ylmethyl)carbamoyl]methyl}propionamide]
inhibition of tail bud formation: did not significantly inhibit tail bud formation

Source: patent publication US6448229B2, “Gamma secretase inhibitors” (Merck Sharp & Dohme Ltd., priority 2000, dated 2002)
